Assay results from patent publication US20130101996A1, “DETECTION METHOD AND APPARATUS OF ACTIVATED NEUTROPHILS” (SYSMEX CORPORATION, priority 2011, published 2013).

Columns and labels:
Type in all cases: cell-based, human
[1] = tested on: neutrophils; assay: Transmission electron microscope observation of stimulated neutrophils; settings: PMA or fMLP added, fixed by 2.5% glutaraldehyde
Method: A sample containing activated neutrophils is prepared from peripheral blood extracted from an able-bodied person in the same manner as in Example 1. Also, a sample not treated by a stimulating substance is prepared as a control sample.
The samples are fixed by 2.5% glutaraldehyde to prepare electron microscope samples according to the method described in the literature by the inventors (Mari Kono et al. (2009), ‘Morphological definition of CD71 positive reticulocytes by various staining techniques and electron microscopy compared to reticulocytes detected by an automated hematology analyzer’, Clinica Chimica Acta, Vol. 404, p105-110.). The obtained samples are analyzed by using a transmission electron microscope (Hitachi H-7500).

[2] = tested on: neutrophils; assay: Flow cytometry (FACSCalibur) of stimulated polymorphonucleocytes, 4DS-SSC scattergram; settings: PMA 0.32 nM or fMLP 50 nM, room temperature 10 min; versus non-stimulated control
Method: Peripheral blood is extracted from an able-bodied person by using a heparin blood collection tube for hematologic examination. A polynuclear sample of purity 90% or more is obtained by centrifugation of the obtained blood using a monopolymer separation solution (Dainippon Sumitomo Pharma Co., Ltd.) at room temperature. This operation is performed according to instructions of the manufacturer (Dainippon Sumitomo Pharma Co., Ltd.). Then, the obtained polymorphonucleocytes (2×10^5) are suspended in a 1 mL of 0.1% bovine serum albumin (phosphate buffered saline). To stain neutrophils of polymorphonucleocytes, CD16 (antihuman CD16 Fc gamma receptor III (clone: DJ130c).mouse monoclonal antibody/neutrophil specific antibody for RPE labeled flow cytometry; Dako) (final concentration: 750 μg/L) fluorescence-labeled by phycoerythrin (PE) is added to the obtained suspension for incubation at room temperature for 10 min. Next, APF (Aminophenyl Fluorescein, Sekisui Medical Co., Ltd.) (final concentration: 10 μM) as a reagent for ROS detection is added to the suspension, which is left still at room temperature for 30 min. […]

[3] = tested on: neutrophils; assay: Confocal laser microscope observation of APF fluorescence (ROS production) in stimulated neutrophils; settings: PMA as stimulating substance, APF 10 μM; confocal laser microscopes
Method: A sample containing activated neutrophils is prepared from peripheral blood extracted from an able-bodied person in the same manner as in Example 1. However, only PMA is used as a stimulating substance of neutrophils. A sample (−APF) not treated by APF and a stimulating substance and a sample (+APF) not treated by a stimulating substance are prepared as control samples.
Each prepared sample is moved to a glass bottom dish coated with poly-L-lysine to observe neutrophils in the sample by confocal laser microscopes (IX81 (manufactured by Olympus Corporation), CSU-X1 (manufactured by Yokogawa Electric Corporation), and ImagEM (manufactured by Hamamatsu Photonics K. K.)).

[4] = tested on: neutrophils in whole blood; assay: Whole blood measured by automated blood cell counter XE-2100, DIFF scattergram of 4DS-SSC; settings: PMA 0.32 nM, room temperature 10 min; whole blood (EDTA-2K)
Method: Peripheral blood is extracted from an able-bodied person by using a blood collection tube containing EDTA-2K for hematologic examination. PMA (manufactured by Sigma-Aldrich Co., LLC.) (final concentration: 0.32 nM) is added to the obtained blood, which is left still at room temperature for 10 min. Whole blood to which PMA is not added is used as a control sample.
The prepared sample is supplied to the automated blood cell counter XE-2100 (manufactured by Sysmex Corporation) for measurement to acquire a DIFF scattergram of 4DS-SSC. The automated blood cell counter XE-2100 automatically treats the sample prepared as described above by using Stromatolyser-4DL and Stromatolyser-4DS (manufactured by Sysmex Corporation) to prepare a measurement sample.

Compound | changes of form of neutrophils (degranulation, vacuole in cytoplasm) [1] | appearance region of neutrophils in 4DS-SSC scattergram [2] | ROS production capability of neutrophils (APF derived fluorescence) [3] | appearance of activated neutrophils in 4DS-SSC scattergram, whole blood [4]
N-Formyl-Met-Leu-Phe [fMLP] | many neutrophils in which degranulation and vacuole are produced in cytoplasm are observed | neutrophils appear on other regions | – | –
CCCCCCCCCCCCCC(=O)O[C@@H]1[C@@H](C)[C@@]2(O)[C@@H](C=C(CO)C[C@]3(O)C(=O)C(C)=C[C@@H]23)[C@@H]2C(C)(C)[C@]12OC(C)=O [PMA, Phorbol 12-myristate 13-acetate] | many neutrophils in which degranulation and vacuole are produced in cytoplasm are observed | neutrophils appear on other regions | enhanced | activated neutrophils appear between a cluster containing neutrophils and a cluster containing eosinophils
